Patent US8940739B2, “Compound of a reverse-turn mimetic and a production method and use therefor” (JW Pharmaceutical Corporation, priority 2010, dated 2015)

System: MV-4-11 (human, Acute Myeloid Leukemia cell line) cells
Assay: Cell growth inhibition assay, GI50 of MV-4-11
Assay type: cell-based
Settings: Homo sapiens, MV4-11, 72 h, MV-4-11 cells
Method: The anti-proliferative activity (cell growth inhibition assay) of the compounds according to the present invention against AML (Acute Myeloid Leukemia) cancer cells was measured. […] The lower the GI50 value, the higher the anti-proliferative activity.
A cell growth Inhibition assay was performed to investigate the rate of inhibition of cell proliferation by the compounds of the present invention. MV-4-11 (human, Acute Myeloid Leukemia cell line) cells were cultured in Iscove's modified Dulbecco's medium (IMDM) including 10% fetal bovine serum (FBS), 1× penicillin/streptomycin (10,000 units/ml Penicillin, […] Streptomycin in 0.85% NaCl). MV-4-11 cells were harvested with the IMDM and 5×10^4 cells/well were transferred to each well of 96-well culture plates (Nunc, #167008).
The compounds of Examples 1 to 5 were exposed to serial dilution and duplicated for each concentration. For the serial dilution, the compounds of the present invention were repeatedly diluted with the same volume of media onto 96-well assay block (costar, #3956). After the dilution, each compound was added to each well.
Also, the background absorbance was measured during the treatment with the test compounds by replacing the test compound with IMDM in the negative control plate. The plates were incubated for three days (72 hours) at 37 in the humidified incubator containing 5% CO2. On the last day, 20 µl of a CellTiter 96 Aqueous One Solution (Promega #G3581) was added to the culture in each well and the plates were incubated for a few hours at 37 in the humidified incubator containing 5% CO2. After the incubation, the absorbance of each cell was measured at 490 nm using an EnVision (Perkinelmer, USA).
The GI50 values were calculated using a Prism 3.0 program.

Row | Compound | GI50
1 | C=CCN1CC(=O)N2[C@@H](Cc3ccc(O)cc3)C(=O)N(Cc3cccc4c(-c5cccc(C(=O)N6CCOCC6)c5)cn(C)c34)C[C@@H]2N1C(=O)NCc1ccccc1 [Compound D-1] | 1.8 nM
2 | C=CCN1CC(=O)N2[C@@H](Cc3ccc(O)cc3)C(=O)N(Cc3cccc4c(-c5cccc(C(=O)N6CCN(C)CC6)c5)cn(C)c34)C[C@@H]2N1C(=O)NCc1ccccc1 [Compound D-2] | 1.3 nM
3 | C=CCN1CC(=O)N2[C@@H](Cc3ccc(O)cc3)C(=O)N(Cc3cccc4c(-c5ccc(C(=O)N6CCN(C)CC6)cc5)cn(C)c34)C[C@@H]2N1C(=O)NCc1ccccc1 [Compound D-3] | 0.1 nM
4 | C=CCN1CC(=O)N2[C@@H](Cc3ccc(O)cc3)C(=O)N(Cc3cccc4c(-c5ccc(C(=O)N6CCCCC6)cc5)cn(C)c34)C[C@@H]2N1C(=O)NCc1ccccc1 [Compound D-4] | 1.4 nM
5 | C=CCN1CC(=O)N2[C@@H](Cc3ccc(O)cc3)C(=O)N(Cc3cccc4c(-c5cccc(C(=O)N6CCC(O)CC6)c5)cn(C)c34)C[C@@H]2N1C(=O)NCc1ccccc1 [Compound D-6] | 1.7 nM
6 | C=CCN1CC(=O)N2[C@@H](Cc3ccc(O)cc3)C(=O)N(Cc3cccc4c(-c5ccc(C(N)=O)cc5)cn(C)c34)C[C@@H]2N1C(=O)NCc1ccccc1 [Compound D-7] | 1.2 nM
7 | C=CCN1CC(=O)N2[C@@H](Cc3ccc(O)cc3)C(=O)N(Cc3cccc4c(-c5ccc(C(=O)NC)cc5)cn(C)c34)C[C@@H]2N1C(=O)NCc1ccccc1 [Compound D-8] | 1.2 nM
8 | C=CCN1CC(=O)N2[C@@H](Cc3ccc(O)cc3)C(=O)N(Cc3cccc4c(-c5cccc(C(=O)NC6CCCCC6)c5)cn(C)c34)C[C@@H]2N1C(=O)NCc1ccccc1 [Compound D-9] | 3.3 nM
9 | C=CCN1CC(=O)N2[C@@H](Cc3ccc(O)cc3)C(=O)N(Cc3cccc4c(-c5ccc(C(=O)Nc6ccc(N7CCNCC7)cc6)cc5)cn(C)c34)C[C@@H]2N1C(=O)NCc1ccccc1 [Compound D-13] | 1.2 nM
10 | C=CCN1CC(=O)N2[C@@H](Cc3ccc(O)cc3)C(=O)N(Cc3cccc4c(-c5ccc(C(=O)Nc6ccc(CN)cc6)cc5)cn(C)c34)C[C@@H]2N1C(=O)NCc1ccccc1 [Compound D-19] | 2 nM
11 | C=CCN1CC(=O)N2[C@@H](Cc3ccc(O)cc3)C(=O)N(Cc3cccc4c(-c5ccc(C(=O)NCc6ccccc6)cc5)cn(C)c34)C[C@@H]2N1C(=O)NCc1ccccc1 [Compound D-27] | 4.3 nM
12 | C=CCN1CC(=O)N2[C@@H](Cc3ccc(O)cc3)C(=O)N(Cc3cccc4c(-c5cccc(C(=O)NCc6ccccc6)c5)cn(C)c34)C[C@@H]2N1C(=O)NCc1ccccc1 [Compound D-28] | 5.5 nM
13 | C=CCN1CC(=O)N2[C@@H](Cc3ccc(O)cc3)C(=O)N(Cc3cccc4c(-c5cccc(C(=O)NC6CC6)c5)cn(C)c34)C[C@@H]2N1C(=O)NCc1ccccc1 [Compound D-29] | 1.3 nM
14 | C=CCN1CC(=O)N2[C@@H](Cc3ccc(O)cc3)C(=O)N(Cc3cccc4c(-c5ccc(C(=O)NC6CCC(N)CC6)cc5)cn(C)c34)C[C@@H]2N1C(=O)NCc1ccccc1 (stereo partly drawn) [Compound D-30] | 1.5 nM
15 | C=CCN1CC(=O)N2[C@@H](Cc3ccc(O)cc3)C(=O)N(Cc3cccc4c(-c5ccc(C(=O)NN6C(C)CNCC6C)cc5)cn(C)c34)C[C@@H]2N1C(=O)NCc1ccccc1 (stereo partly drawn) [Compound D-32] | 1.3 nM
16 | C=CCN1CC(=O)N2[C@@H](Cc3ccc(O)cc3)C(=O)N(Cc3cccc4c(-c5ccc(C(=O)NNC)cc5)cn(C)c34)C[C@@H]2N1C(=O)NCc1ccccc1 [Compound D-33] | 1.4 nM
17 | C=CCN1CC(=O)N2[C@@H](Cc3ccc(O)cc3)C(=O)N(Cc3cccc4c(-c5ccc(C(=O)NNC(C)C)cc5)cn(C)c34)C[C@@H]2N1C(=O)NCc1ccccc1 [Compound D-35] | 15 nM
18 | C=CCN1CC(=O)N2[C@@H](Cc3ccc(O)cc3)C(=O)N(Cc3cccc4c(-c5ccc(C(=O)NN(C)C)cc5)cn(C)c34)C[C@@H]2N1C(=O)NCc1ccccc1 [Compound D-36] | 1.2 nM
19 | C=CCN1CC(=O)N2[C@@H](Cc3ccc(O)cc3)C(=O)N(Cc3cccc4c(-c5ccc(C(=O)NNCC(F)(F)F)cc5)cn(C)c34)C[C@@H]2N1C(=O)NCc1ccccc1 [Compound D-37] | 1.3 nM
20 | C=CCN1CC(=O)N2[C@@H](Cc3ccc(O)cc3)C(=O)N(Cc3cccc4c(-c5ccc(C(=O)NNCc6ccccc6)cc5)cn(C)c34)C[C@@H]2N1C(=O)NCc1ccccc1 [Compound D-38] | 3.2 nM
21 | C=CCN1CC(=O)N2[C@@H](Cc3ccc(O)cc3)C(=O)N(Cc3cccc4c(-c5ccc(C(=O)NCCN(C)C)cc5)cn(C)c34)C[C@@H]2N1C(=O)NCc1ccccc1 [Compound D-39] | 1.2 nM

Row | Compound | GI50
22 | C=CCN1CC(=O)N2[C@@H](Cc3ccc(O)cc3)C(=O)N(Cc3cccc4c(-c5ccc(C(=O)N(C)CCN(C)C)cc5)cn(C)c34)C[C@@H]2N1C(=O)NCc1ccccc1 [Compound D-40] | 1.2 nM
23 | C=CCN1CC(=O)N2[C@@H](Cc3ccc(O)cc3)C(=O)N(Cc3cccc4c(-c5ccc(C(=O)N(N)C(C)C)cc5)cn(C)c34)C[C@@H]2N1C(=O)NCc1ccccc1 [Compound D-42] | 1.8 nM
24 | C=CCN1CC(=O)N2[C@@H](Cc3ccc(O)cc3)C(=O)N(Cc3cccc4c(-c5ccc(C(=O)NN6CCOCC6)cc5)cn(C)c34)C[C@@H]2N1C(=O)NCc1ccccc1 [Compound D-43] | 1.2 nM
25 | C=CCN1CC(=O)N2[C@@H](Cc3ccc(O)cc3)C(=O)N(Cc3cccc4c(-c5ccc(C(=O)NOC(C)(C)C)cc5)cn(C)c34)C[C@@H]2N1C(=O)NCc1ccccc1 [Compound D-46] | 3.4 nM
26 | C=CCN1CC(=O)N2[C@@H](Cc3ccc(O)cc3)C(=O)N(Cc3cccc4c(-c5ccc(C(=O)N(C)OC)cc5)cn(C)c34)C[C@@H]2N1C(=O)NCc1ccccc1 [Compound D-47] | 1.3 nM
27 | C=CCN1CC(=O)N2[C@@H](Cc3ccc(O)cc3)C(=O)N(Cc3cccc4c(-c5ccc(NC(=O)c6ccc(CN)cc6)cc5)cn(C)c34)C[C@@H]2N1C(=O)NCc1ccccc1 [Compound D-53] | 1.2 nM
28 | C=CCN1CC(=O)N2[C@@H](Cc3ccc(O)cc3)C(=O)N(Cc3cccc4c(-c5ccc(NC(=O)c6ccc(CN(C)C)cc6)cc5)cn(C)c34)C[C@@H]2N1C(=O)NCc1ccccc1 [Compound D-54] | 1.2 nM
29 | C=CCN1CC(=O)N2C(CN(Cc3cccc4c(-c5ccc(NC(=O)C6CCN(C)CC6)cc5)cn(C)c34)C(=O)[C@@H]2Cc2ccc(O)cc2)N1C(=O)NCc1ccccc1 (stereo partly drawn) [Compound D-60] | 1.1 nM
30 | C=CCN1CC(=O)N2[C@@H](Cc3ccc(O)cc3)C(=O)N(Cc3cccc4c(-c5ccc(NC(=O)C6CCN(C(C)=O)CC6)cc5)cn(C)c34)C[C@@H]2N1C(=O)NCc1ccccc1 [Compound D-61] | 1.3 nM
31 | C=CCN1CC(=O)N2[C@@H](Cc3ccc(O)cc3)C(=O)N(Cc3cccc4c(-c5ccc(NC(=O)C6CCN(C)CC6)cc5)cn(C)c34)C[C@@H]2N1C(=O)NCc1ccccc1 [Compound D-62] | 1.3 nM
32 | C=CCN1CC(=O)N2[C@@H](Cc3ccc(O)cc3)C(=O)N(Cc3cccc4c(-c5ccc(NC(=O)C6CCCN(C)C6)cc5)cn(C)c34)C[C@@H]2N1C(=O)NCc1ccccc1 (stereo partly drawn) [Compound D-63] | 1.3 nM
33 | C=CCN1CC(=O)N2[C@@H](Cc3ccc(O)cc3)C(=O)N(Cc3cccc4c(-c5ccc(NC(=O)N6CCC(N7CCOCC7)CC6)cc5)cn(C)c34)C[C@@H]2N1C(=O)NCc1ccccc1 [Compound D-64] | 1.2 nM
34 | C=CCN1CC(=O)N2[C@@H](Cc3ccc(O)cc3)C(=O)N(Cc3cccc4c(-c5ccc(NC(=O)N6CCC(N(C)C)CC6)cc5)cn(C)c34)C[C@@H]2N1C(=O)NCc1ccccc1 [Compound D-65] | 1.3 nM
35 | C=CCN1CC(=O)N2[C@@H](Cc3ccc(O)cc3)C(=O)N(Cc3cccc4c(-c5ccc(NC(=O)N6CC(N7CCC(OC)CC7)C6)cc5)cn(C)c34)C[C@@H]2N1C(=O)NCc1ccccc1 [Compound D-66-1] | 1.4 nM
36 | C=CCN1CC(=O)N2[C@@H](Cc3ccc(O)cc3)C(=O)N(Cc3cccc4c(-c5ccc(NC(=O)N6CC(N7CCOCC7)C6)cc5)cn(C)c34)C[C@@H]2N1C(=O)NCc1ccccc1 [Compound D-66] | 1.3 nM
37 | C=CCN1CC(=O)N2[C@@H](Cc3ccc(O)cc3)C(=O)N(Cc3cccc4c(-c5ccc(NC(=O)N6CCN(C)CC6)cc5)cn(C)c34)C[C@@H]2N1C(=O)NCc1ccccc1 [Compound D-67] | 1.3 nM
38 | C=CCN1CC(=O)N2[C@@H](Cc3ccc(O)cc3)C(=O)N(Cc3cccc4c(-c5ccc(NC(=O)c6ccc(-n7ccnc7)nc6)cc5)cn(C)c34)C[C@@H]2N1C(=O)NCc1ccccc1 [Compound D-68] | 1.4 nM
39 | C=CCN1CC(=O)N2[C@@H](Cc3ccc(O)cc3)C(=O)N(Cc3cccc4c(-c5ccc(NC(=O)CCCN)cc5)cn(C)c34)C[C@@H]2N1C(=O)NCc1ccccc1 [Compound D-70] | 4.4 nM
40 | C=CCN1CC(=O)N2[C@@H](Cc3ccc(O)cc3)C(=O)N(Cc3cccc4c(-c5ccc(NC(=O)CCCNCC(N)=O)cc5)cn(C)c34)C[C@@H]2N1C(=O)NCc1ccccc1 [Compound D-71] | 1.9 nM
41 | C=CCN1CC(=O)N2[C@@H](Cc3ccc(O)cc3)C(=O)N(Cc3cccc4c(-c5ccc(NC(=O)Nc6ccc(N7CCN(C)CC7)nc6)cc5)cn(C)c34)C[C@@H]2N1C(=O)NCc1ccccc1 [Compound D-78] | 1.5 nM
42 | C=CCN1CC(=O)N2[C@@H](Cc3ccc(O)cc3)C(=O)N(Cc3cccc4c(-c5ccc(NC(=O)Nc6ccncn6)cc5)cn(C)c34)C[C@@H]2N1C(=O)NCc1ccccc1 [Compound D-81] | 9.9 nM
